Experimental findings from ChEMBL document CHEMBL2150866, “Irreversible 4-Aminopiperidine Transglutaminase 2 Inhibitors for Huntington's Disease” (ACS Med Chem Lett, 2012) are described below.

What is called IC50 is the concentration at which inhibition is half-maximal. A low value points to greater potency in that assay. The term half-life denotes the time needed for the level to fall by half in the phase considered. Low readings indicate rapid decline, high ones slow decline. For orientation: Papp A→B means how fast a substance crosses the layer from the apical side. What is called efflux ratio is the permeability from basolateral to apical divided by that in the opposite direction, in the common usage.

Data set [1] deals with T1, Protein-glutamine gamma-glutamyltransferase 6 (Homo sapiens, UniProt O95932).
T1 sequence (O95932 whole entry): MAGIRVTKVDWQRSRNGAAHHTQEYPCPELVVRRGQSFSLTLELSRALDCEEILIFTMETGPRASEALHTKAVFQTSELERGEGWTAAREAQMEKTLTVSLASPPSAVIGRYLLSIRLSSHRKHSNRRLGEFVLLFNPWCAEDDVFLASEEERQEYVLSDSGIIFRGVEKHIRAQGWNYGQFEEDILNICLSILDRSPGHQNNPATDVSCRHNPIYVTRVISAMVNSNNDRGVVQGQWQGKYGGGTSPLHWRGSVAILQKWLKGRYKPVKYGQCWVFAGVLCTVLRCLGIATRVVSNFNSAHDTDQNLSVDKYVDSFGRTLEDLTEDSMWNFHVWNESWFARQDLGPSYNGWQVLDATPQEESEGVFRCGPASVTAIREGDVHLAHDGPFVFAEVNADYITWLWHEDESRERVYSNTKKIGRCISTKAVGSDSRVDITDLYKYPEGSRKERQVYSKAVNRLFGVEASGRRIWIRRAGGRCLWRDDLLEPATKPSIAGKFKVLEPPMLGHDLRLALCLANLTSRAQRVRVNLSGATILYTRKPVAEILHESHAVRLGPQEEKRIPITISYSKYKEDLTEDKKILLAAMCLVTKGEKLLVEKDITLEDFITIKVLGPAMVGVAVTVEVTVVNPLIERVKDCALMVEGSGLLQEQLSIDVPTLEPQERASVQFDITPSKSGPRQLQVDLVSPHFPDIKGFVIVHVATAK
In words: Inhibition of human TGM6.

Data set [2] can be described thus: Chemical stability of the compound in phosphate buffer at pH 7.4 assessed as GSH adduct formation after 120 hrs. Type of data set: physicochemical. The following applies: pH 7.4, 120 h.
The target of data set [3] is T2, Coagulation factor XIII A chain (Homo sapiens, UniProt P00488).
T2 sequence (P00488 whole entry): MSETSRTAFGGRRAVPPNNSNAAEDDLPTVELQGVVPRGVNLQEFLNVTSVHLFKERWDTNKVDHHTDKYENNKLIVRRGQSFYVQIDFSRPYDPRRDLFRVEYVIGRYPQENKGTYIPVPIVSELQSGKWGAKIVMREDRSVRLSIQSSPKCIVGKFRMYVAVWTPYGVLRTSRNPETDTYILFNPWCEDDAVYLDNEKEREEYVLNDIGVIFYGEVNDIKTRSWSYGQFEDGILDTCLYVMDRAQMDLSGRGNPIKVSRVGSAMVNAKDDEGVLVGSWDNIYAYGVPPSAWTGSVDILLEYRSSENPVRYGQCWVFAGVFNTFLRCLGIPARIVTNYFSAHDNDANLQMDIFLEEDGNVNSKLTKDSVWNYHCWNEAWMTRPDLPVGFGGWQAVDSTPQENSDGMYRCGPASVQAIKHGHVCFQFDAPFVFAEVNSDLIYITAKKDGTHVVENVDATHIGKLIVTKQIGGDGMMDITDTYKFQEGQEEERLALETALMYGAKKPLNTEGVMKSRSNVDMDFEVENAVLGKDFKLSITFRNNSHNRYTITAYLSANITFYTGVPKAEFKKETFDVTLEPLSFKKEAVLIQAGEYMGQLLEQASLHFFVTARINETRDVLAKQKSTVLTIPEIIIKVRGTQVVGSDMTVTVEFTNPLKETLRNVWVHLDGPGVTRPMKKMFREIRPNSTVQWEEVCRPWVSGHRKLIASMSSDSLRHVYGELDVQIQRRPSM
The data set can be described thus: Inhibition of human factor-13A.

A short description of data set [4]: Half life in human plasma at 1 uM. In kind it is ADME, cell-free.
Data set [5] addresses T3, Protein-glutamine gamma-glutamyltransferase (Homo sapiens, UniProt P21980).
T3 sequence (P21980 whole entry): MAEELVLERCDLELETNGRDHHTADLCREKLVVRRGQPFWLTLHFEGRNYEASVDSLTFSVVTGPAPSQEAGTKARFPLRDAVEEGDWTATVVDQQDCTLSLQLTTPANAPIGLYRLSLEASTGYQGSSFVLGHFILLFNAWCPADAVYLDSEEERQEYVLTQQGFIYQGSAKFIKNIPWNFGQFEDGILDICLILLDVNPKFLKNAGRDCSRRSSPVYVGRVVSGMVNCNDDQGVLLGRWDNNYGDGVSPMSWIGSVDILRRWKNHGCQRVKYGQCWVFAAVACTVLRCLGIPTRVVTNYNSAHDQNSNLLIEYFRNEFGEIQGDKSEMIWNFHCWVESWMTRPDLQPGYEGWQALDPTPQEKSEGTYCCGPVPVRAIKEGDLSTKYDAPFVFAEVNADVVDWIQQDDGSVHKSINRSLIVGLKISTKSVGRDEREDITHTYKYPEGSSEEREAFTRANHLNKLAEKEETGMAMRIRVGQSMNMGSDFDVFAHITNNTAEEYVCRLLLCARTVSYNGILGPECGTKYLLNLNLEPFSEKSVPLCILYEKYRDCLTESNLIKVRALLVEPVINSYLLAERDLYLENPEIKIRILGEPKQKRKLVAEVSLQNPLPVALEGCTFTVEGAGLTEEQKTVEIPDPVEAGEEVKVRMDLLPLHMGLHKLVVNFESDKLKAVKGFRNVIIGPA
The data set can be described thus: Inhibition of human TGM2.

Data set [6] in a line: Half life in mouse plasma at 1 uM. Type of data set: ADME, cell-free.
Data set [7] has as its target T4, Protein-glutamine gamma-glutamyltransferase K (Homo sapiens, UniProt P22735).
T4 sequence (P22735 whole entry): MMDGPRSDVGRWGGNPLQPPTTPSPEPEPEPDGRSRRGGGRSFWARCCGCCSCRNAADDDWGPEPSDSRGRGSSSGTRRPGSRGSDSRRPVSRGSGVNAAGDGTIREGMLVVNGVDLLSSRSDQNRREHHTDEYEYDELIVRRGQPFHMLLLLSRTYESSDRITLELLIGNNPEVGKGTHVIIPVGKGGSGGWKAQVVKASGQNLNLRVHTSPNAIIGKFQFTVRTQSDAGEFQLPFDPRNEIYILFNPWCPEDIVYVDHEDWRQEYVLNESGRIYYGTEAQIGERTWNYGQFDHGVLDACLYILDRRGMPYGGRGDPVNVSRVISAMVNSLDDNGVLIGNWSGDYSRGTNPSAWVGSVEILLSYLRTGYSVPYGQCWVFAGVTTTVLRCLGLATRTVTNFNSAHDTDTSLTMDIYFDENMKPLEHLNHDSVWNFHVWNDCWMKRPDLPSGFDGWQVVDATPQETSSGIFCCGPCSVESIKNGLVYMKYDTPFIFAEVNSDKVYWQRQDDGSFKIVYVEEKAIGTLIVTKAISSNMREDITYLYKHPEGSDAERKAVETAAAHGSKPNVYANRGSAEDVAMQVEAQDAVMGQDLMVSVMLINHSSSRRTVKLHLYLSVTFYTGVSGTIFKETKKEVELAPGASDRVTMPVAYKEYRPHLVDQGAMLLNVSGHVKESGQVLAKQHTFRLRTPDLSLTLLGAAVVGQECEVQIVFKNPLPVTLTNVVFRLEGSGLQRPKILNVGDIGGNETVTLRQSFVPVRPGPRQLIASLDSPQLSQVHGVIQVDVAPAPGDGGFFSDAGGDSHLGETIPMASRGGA
In words: Inhibition of human TGM1.

For data set [8], the target named is T5, Protein-glutamine gamma-glutamyltransferase E (Homo sapiens, UniProt Q08188).
T5 sequence (Q08188 whole entry): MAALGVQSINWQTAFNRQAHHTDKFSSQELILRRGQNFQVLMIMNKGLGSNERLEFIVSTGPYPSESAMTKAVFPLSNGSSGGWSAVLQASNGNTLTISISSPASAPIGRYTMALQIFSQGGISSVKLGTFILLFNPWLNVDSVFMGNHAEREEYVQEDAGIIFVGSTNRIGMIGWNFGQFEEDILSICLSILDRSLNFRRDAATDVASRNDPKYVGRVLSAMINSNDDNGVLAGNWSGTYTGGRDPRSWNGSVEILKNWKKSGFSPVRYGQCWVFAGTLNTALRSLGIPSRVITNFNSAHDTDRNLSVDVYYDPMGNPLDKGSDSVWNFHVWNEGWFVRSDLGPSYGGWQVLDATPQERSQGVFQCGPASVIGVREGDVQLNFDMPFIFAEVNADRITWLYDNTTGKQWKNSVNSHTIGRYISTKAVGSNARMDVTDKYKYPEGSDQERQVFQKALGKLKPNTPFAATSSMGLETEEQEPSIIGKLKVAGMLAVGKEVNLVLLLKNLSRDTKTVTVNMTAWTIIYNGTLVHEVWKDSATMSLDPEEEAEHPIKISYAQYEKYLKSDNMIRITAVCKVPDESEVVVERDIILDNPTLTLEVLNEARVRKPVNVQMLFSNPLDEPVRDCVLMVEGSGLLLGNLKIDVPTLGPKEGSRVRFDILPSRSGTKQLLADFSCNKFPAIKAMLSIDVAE
The data set can be described thus: Inhibition of human TGM3.

Data set [9] can be described thus: Intrinsic clearance in human liver microsomes at 1 uM. Type of data set: ADME, Microsome. The following applies: read-out: CLH. A general note: Microsomes from liver hold many membrane-bound enzymes, among them those of drug oxidation.
The nature of data set [10]: Kinetic solubility of the compound in phosphate buffered saline at pH 7.4. Type of data set: physicochemical. The note with it: read-out: Kinetic_solubility.
Data set [11] in a line: Apparent permeability from apical to basolateral side of wild type MDCK cells. Type of data set: ADME, cell-based, Canis lupus familiaris. The following applies: dog.
Data set [12] in a line: Intrinsic clearance in mouse liver microsomes at 1 uM. In kind it is ADME, Microsome. The note with it: read-out: CLH.
Data set [13] in a line: Efflux ratio of permeability in wild type MDCK cells. Type of data set: ADME, cell-based, Canis lupus familiaris. The note with it: dog.
For data set [14], the target named is T6, Protein-glutamine gamma-glutamyltransferase 2 (Mus musculus, UniProt P21981).
T6 sequence (P21981 whole entry): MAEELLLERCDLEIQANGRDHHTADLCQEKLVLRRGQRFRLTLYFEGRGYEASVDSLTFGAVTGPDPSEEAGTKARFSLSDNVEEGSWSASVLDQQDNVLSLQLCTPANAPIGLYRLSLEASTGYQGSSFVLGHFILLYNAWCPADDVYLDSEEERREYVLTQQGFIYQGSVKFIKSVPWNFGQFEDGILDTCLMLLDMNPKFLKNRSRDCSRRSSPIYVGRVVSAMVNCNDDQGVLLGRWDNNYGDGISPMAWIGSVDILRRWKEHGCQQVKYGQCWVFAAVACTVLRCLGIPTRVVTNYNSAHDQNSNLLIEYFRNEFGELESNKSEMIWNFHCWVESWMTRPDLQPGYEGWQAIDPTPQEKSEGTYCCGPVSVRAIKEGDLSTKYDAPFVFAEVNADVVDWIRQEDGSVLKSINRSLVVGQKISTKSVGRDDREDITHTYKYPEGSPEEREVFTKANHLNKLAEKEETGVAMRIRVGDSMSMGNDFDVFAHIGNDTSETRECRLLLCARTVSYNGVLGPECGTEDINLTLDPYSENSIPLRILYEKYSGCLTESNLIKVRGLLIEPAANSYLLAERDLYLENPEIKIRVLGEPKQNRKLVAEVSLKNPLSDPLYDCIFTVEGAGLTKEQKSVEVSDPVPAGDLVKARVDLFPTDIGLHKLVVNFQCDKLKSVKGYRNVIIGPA
In words: Inhibition of mouse TGM2.

Structures are written as SMILES.

Consider `C=CC(=O)NC1CCN(S(=O)(=O)c2ccc(NC(=O)OCc3ccccc3)cc2)CC1`, for which the 50% inhibitory concentration (IC50) is 8.9 µM in data set [1]; 3.6 µM in [3]; 0.28 µM in [5]; 0.91 µM in data set [7]; above 80 µM in data set [8]. Besides, the Stability result in [2] was “Stable”. In addition, the results for the half-life at 1 µM in data set [4] and in [6] were above 6 h and 4 h, respectively.

`C=CC(=O)NC1CCN(S(=O)(=O)c2ccc(C(=O)NCCc3ccccc3)cc2)CC1`: the values for the microsomal CLint at 1 µM in data set [9] and in data set [12] were 595 µL/min/mg and 99 µL/min/mg, respectively. The solubility kinetic in data set [10] is below 10 µg/mL. In addition, the apical-to-basolateral permeability (Papp A→B) in [11] was 8.3 ×10⁻⁶ cm/s. Besides, the half-life at 1 µM in data set [4] and in data set [6] was above 6 h each time. In addition, in [5], half-maximal inhibition (IC50) was put at 0.18 µM. The efflux ratio in data set [13] came to 44.

On to `C=CC(=O)NC1CCN(S(=O)(=O)c2ccc(C(=O)NCCc3ccc(OC)cc3)cc2)CC1`, for which the IC50 in data set [1] came out at 34 µM; in data set [14] it was 0.055 µM; in [3], 6.4 µM; in data set [7], 1.2 µM. Moreover, the half-life at 1 µM in data set [4] and in data set [6] was above 6 h throughout.
